Measurements published in PMC10648927, “Examining the activity of cefepime-taniborbactam against Burkholderia cepacia complex and Burkholderia gladioli isolated from cystic fibrosis patients in the United States” (Antimicrobial Agents and Chemotherapy, 2023).

Biological target: T1, PenA1 β-lactamase (class A carbapenemase) (Burkholderia multivorans, UniProt A0A0H3KN52)
T1 construct: gene ampC
Experiment: steady-state β-lactamase inhibition kinetics (Ki app, k2/K, koff)
Assay type: biochemical
Conditions: read-out: Taniborbactam

T1 sequence (A0A0H3KN52 entry or part of it): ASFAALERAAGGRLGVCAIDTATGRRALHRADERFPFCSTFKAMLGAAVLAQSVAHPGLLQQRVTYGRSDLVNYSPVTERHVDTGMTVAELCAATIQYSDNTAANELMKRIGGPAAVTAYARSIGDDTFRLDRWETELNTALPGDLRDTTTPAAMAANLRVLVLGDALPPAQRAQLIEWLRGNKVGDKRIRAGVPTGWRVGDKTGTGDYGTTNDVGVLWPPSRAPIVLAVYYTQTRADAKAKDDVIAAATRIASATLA

Ki: 400 ± 40 nM
SMILES: NCCN[C@H]1CC[C@H](CC(=O)N[C@H]2Cc3cccc(C(=O)O)c3OB2O)CC1 [taniborbactam]
